Test results reported in US20250170027A1, “COLLAGEN CROSS-LINKER AND USES THEREOF” (The Curators of the University of Missouri, priority 2022, published 2025).

Key:
[1] = test system: Clostridium histolyticum collagenase; conditions: after 1 hour incubation at 37° C.; 0.2 U/ml collagenase; EDTA 5 mM; FIG. 3
Description: The direct inactivation of collagenase by TRI was also determined using a collagenase assay kit. Assays were performed in 96-well microplates with 0.2 U/ml Clostridium histolyticum collagenase incubated with the treatment solutions for up to 24 h according to the manufacturer's instructions. The well-known collagenase inhibitor 5 mM EDTA was used as a positive control. A group without any treatment was included as a negative control. The fluorescence of kinetic of inactivation was monitored at 1, 2, 4, 16 and 24 h of incubation at 37° C. in triplicate at 490 nm/520 nm. Fluorescence at the different time points was determined by subtracting background fluorescence. The collagenase activity was expressed in arbitrary fluorescence units. Then, the activity was calculated in percentage of inhibition according to the untreated negative control (presumed 100% collagenase activity) after 4 h of incubation. Statistical analysis was performed by one-way ANOVA and Games Howell's post hoc (α=0.05).

L929 cells [2] = experiment: Effect of direct treatment on cell proliferation (MTS assay); type: cell-based; conditions: treatment solutions diluted 1:1000, 1:2000, 1:4000 (v/v) in culture medium; FIG. 5
Description: (§1) The cells were seeded onto 24 and 96-well plates at a density of 2×10^4 cells/cm^2 and incubated at 37° C. in 5% CO2 and 95% relative humidity until the monolayer cells spread over the bottom of the wells.
The direct treatments were conducted on 96-well plates with replacement of original culture medium with culture medium containing different diluted treatment solutions at ratios of 1:1000, 1:2000 and 1:4000 (v/v) and a control group containing only original culture medium. Cell proliferation was assessed with the MTS assay CellTiter 96 AQueous One Solution Cell Proliferation Assay following protocol guidelines specified by the manufacturer. Absorbance was measured using a multimode microplate reader at 460/30 nm at 2 h after addition of MTS reagent. Statistical analysis was performed using a two-way ANOVA for each used concentration followed by Tukey's post hoc (α=0.05).

L929 cells [3] = type: cell-based; conditions: dentin disks treated 1 min; 1 or 3 days exposure; FIGS. 6, 7
Description: as §1
Twenty-four teeth were sectioned obtaining 24-dentin disks (approximately 6-mm in diameter). The dentin disks were superficially etched using 32% phosphoric acid gel for 15 s on each side, rinsed thoroughly and placed in 100 μL of treatment solutions. After 1 min of treatment, the treated dentin disks were rinsed in sterile distilled water for 30 s. Treated dentin disks were immediately placed on a permeable polycarbonate membrane insert (6.5 mm in diameter, 3.0 μm pore size) above of cultured cells and covered with 100 μL of medium. After incubation, cell viability assay was used to stain live cells with calcein-AM and dead cells with ethidium homodimer. To distinguish overlapped cells in cell counting, Hoechst 33342 was used as a cell-permeant nuclear counterstain, following the guidelines specified by the manufacturer. Cells were imaged using a fluorescent High Content Microscope with 20× magnification. Cell counting was performed using ImageJ (NIH Image J1.8.0). The percentage of cell proliferation and dead cells were statistically compared to 1-day control using one-way ANOVA and Dunnett's test (α=0.05).

dentin collagen = experiment: Biodegradation of dentin collagen by exogenous collagenase (weight loss, HYP release); type: biochemical, human; conditions: crosslinker 0.6 wt % in EtOH, 60 s or 1 h treatment; 0.1% collagenase 1 h at 37° C.; FIG. 2A
Description: Following the treatment and rinse, the dentin collagen films were dried (48 h under vacuum) and then exposed to 0.1% collagenase (type I, from Clostridium histolyticum, ≥125 U/mg) degradation for 1 h at 37° C. (n=6×10 films per group). The remnant films were dried as previously described and compared the weight percent before and after collagenase digestion for weight loss analysis (WL). The digestion solution was collected and processed to quantify the amount of HYP released. This processing comprised exposure to 5% Ehrlich's reagent, which binds to HYP and produces a colored solution, the color intensity of which is proportional to the concentration of HYP. Colorimetry was performed by measuring the absorbance at 555 nm in a microplate reader, thereby calculating the HYP μg/mg of collagen during digestion. […] All data for weight loss are separately shown after […] for each sample.

mammalian collagen = experiment: Application of crosslinkers to mammalian collagen (biostability, general statement); conditions: application of any one of the crosslinkers to mammalian collagen

For `O=C(O)CN(CCN(CC(=O)O)CC(=O)O)CC(=O)O` [EDTA, ethylenediaminetetraacetic acid], the collagenase inhibition [1] was “some collagenase inhibition”.

For `O=CCCCC=O` [GA, glutaraldehyde], the “cell proliferation (MTS absorbance) compared to the control sample” value (L929 cells [2]) was “high cytotoxicity” and the “cytotoxic effect on L929 cells” value (L929 cells [3]) was “cytotoxic”.

With `COC(=O)C1=CO[C@@H](O)[C@@H]2C(CO)=CC[C@H]12` [GEN, genipin] the “weight % change (weight loss) before and after collagenase digestion” value (dentin collagen) was “not faring much better”.

With `O=c1c(O)c(-c2ccc(O)c(O)c2)oc2cc(O)cc(O)c12` [QC, quercetin] the “weight % change (weight loss) before and after collagenase digestion” value (dentin collagen) was “not faring much better”.

`O=C(NCCc1ccc(O)c(O)c1)c1cc(C(=O)NCCc2ccc(O)c(O)c2)cc(C(=O)NCCc2ccc(O)c(O)c2)c1` [TRI-1] was tested, and the “biostability of mammalian collagen” value (mammalian collagen) was “improves the biostability”.

With `O=C(O)c1cc(C(=O)NCCc2ccc(O)c(O)c2)cc(C(=O)NCCc2ccc(O)c(O)c2)c1` [TRI-2] the “biostability of mammalian collagen” value (mammalian collagen) was “improves the biostability”.

In the case of `CCOC(=O)c1cc(C(=O)NCCc2ccc(O)c(O)c2)cc(C(=O)NCCc2ccc(O)c(O)c2)c1` [TRI-3], the “biostability of mammalian collagen” value (mammalian collagen) is reported as “improves the biostability”.
